Measurements reported in patent publication US4196205A, “3-Acetoxymethyl-7-(iminoacetamido)-cephalosporanic acid derivatives” (priority 1976, dated 1980).
≈ marks a conversion by molar mass, not a printed value. Read-outs that look alike come from different tables or passages of the source.

Assays:
Assay in all cases: MIC, dilution in liquid medium
Format in all cases: cell-based
[1] = system: Streptococcus faecalis 5 432
Procedure: (§1) The method used was a dilution of a liquid medium where a series of tubes received the same quantity of a sterile nutritive media and increasing doses of the test compounds were placed therein. Then each tube was seeded with a bacterial strain and was incubated for 24 to 48 hours at 37° C. in an oven. The increasing inhibition was determined by transillumination to determine the minimum inhibiting concentration (MIC in […]) and the results are reported in the following Tables.

[2] = system: Staphylococcus aureus UC 1 128 Pen-Resistant; details: Staphylococcus aureus
Procedure: as §1

[3] = system: Klebsiella pneumoniae 2 536 Resistant Gentamicine; details: Klebsiella pneumoniae
Procedure: as §1

Enterobacter cloacae 681 = system: Enterobacter cloacae 681
Procedure: as §1

[4] = system: Staphylococcus aureus exp. n° 54 146; details: Staphylococcus aureus
Procedure: as §1

[5] = system: Escherichia Coli Sensible Tetracycline ATCC 9 637 = 1020; details: Escherichia coli
Procedure: as §1

[6] = system: Escherichia Coli Resistant Gentamicine, Tobramycine R 55 123 D; details: Escherichia coli, read-out: M.I.C.
Procedure: as §1

[7] = system: Serratia Resistant Gentamicine 2 532
Procedure: as §1

[8] = system: Staphylococcus aureus ATCC 5 638 Pen-Sensible = UC 1061
Procedure: as §1

[9] = system: Proteus mirabilis (indol-) A 235; details: Proteus mirabilis, read-out: M.I.C.
Procedure: as §1

[10] = system: Escherichia Coli Exp. TO26 B6; details: Escherichia coli
Procedure: as §1

[11] = system: Salmonella typhimurium 420; details: Salmonella enterica, TYPHIMURIUM
Procedure: as §1

[12] = system: Streptococcus faecalis 99 F 74; details: Enterococcus faecalis
Procedure: as §1

[13] = system: Escherichia Coli Resistant Tetracycline ATCC 11 303 = UC 1261; details: Escherichia coli
Procedure: as §1

Providencia Du 48 = details: Providencia
Procedure: as §1

[14] = system: Klebsiella pneumoniae Exp. 52 145; details: Klebsiella pneumoniae
Procedure: as §1

[15] = system: Bacillus subtilis ATCC 6 633; details: Bacillus subtilis
Procedure: as §1

[16] = system: Streptococcus pyogenes A 561; details: Streptococcus pyogenes, read-out: M.I.C.
Procedure: as §1

[17] = Enterococcus faecalis, 5432, 24 h, 24 H
[18] = Enterococcus faecalis, 5432, 48 h, 48 H
[19] = Enterobacter cloacae, 681, 24 h

Compound	MIC [1, 17] [µg/mL]	MIC [1, 18] [µg/mL]	MIC ([2]; UC1, 24 h, 24 H) [µg/mL]	MIC ([2]; UC1, 48 h, 48 H) [µg/mL]	MIC (Enterobacter cloacae 681; [19]) [µg/mL]	MIC ([4]; 24 h) [µg/mL]	MIC ([4]; 48 h) [µg/mL]	MIC ([6]; 24 h) [µg/mL]	MIC ([6]; 48 h) [µg/mL]	MIC ([7]; 24 h) [µg/mL]	MIC ([9]; 24 h) [µg/mL]	MIC ([9]; 48 h) [µg/mL]	MIC ([10]; 24 h) [µg/mL]	MIC ([10]; 48 h) [µg/mL]	MIC ([11]; 24 h, read-out: M.I.C.) [µg/mL]	MIC (Providencia Du 48; DU48, 24 h, 24 H) [µg/mL]	MIC (Providencia Du 48; DU48, 48 h, 48 H) [µg/mL]	MIC ([15]; ATCC6, 48 h, 48 H) [µg/mL]	MIC ([16]; A561, 24 h, 24 H) [µg/mL]	MIC ([16]; A561, 48 h, 48 H) [µg/mL]	other results
CC(=O)OCC1=C(C(=O)O)N2C(=O)C(NC(=O)/C(=N\O)c3csc(N)n3)C2SC1 (stereo not drawn) [Example 28, syn isomer of 7-[2-(2-amino-4-thiazolyl)-2-hydroxyiminoacetamido]-3-acetoxymethyl-ceph-3-eme-4-carboxylic acid]	5 (≈ 11.3 µM)	5 (≈ 11.3 µM)	1 (≈ 2.27 µM)	1 (≈ 2.27 µM)	5 (≈ 11.3 µM)	1 (≈ 2.27 µM)	1 (≈ 2.27 µM)	0.2 (≈ 0.453 µM)	0.2 (≈ 0.453 µM)	5 (≈ 11.3 µM)	0.1 (≈ 0.227 µM)	0.2 (≈ 0.453 µM)	0.05 (≈ 0.113 µM)	0.1 (≈ 0.227 µM)	0.1 (≈ 0.227 µM)	2 (≈ 4.53 µM)	2 (≈ 4.53 µM)	1 (≈ 2.27 µM)	0.02 (≈ 0.0453 µM)	0.02 (≈ 0.0453 µM)	MIC ([3]; 24 h, read-out: M.I.C.): 0.2 µg/mL (≈ 0.453 µM); MIC ([3]; 48 h, read-out: M.I.C.): 0.5 µg/mL (≈ 1.13 µM); MIC (Enterobacter cloacae 681; Enterobacter cloacae, 681, 48 h, read-out: M.I.C.): 10 µg/mL (≈ 22.7 µM); MIC ([5]; ATCC9, 24 h, 24 H): 0.05 µg/mL (≈ 0.113 µM); MIC ([5]; ATCC9, 48 h, 48 H): 0.1 µg/mL (≈ 0.227 µM); MIC ([7]; 48 h, read-out: M.I.C.): 10 µg/mL (≈ 22.7 µM); MIC ([8]; 24 h, read-out: M.I.C.): 0.5 µg/mL (≈ 1.13 µM); MIC ([8]; 48 h, read-out: M.I.C.): 0.5 µg/mL (≈ 1.13 µM); MIC ([11]; 48 h): 0.1 µg/mL (≈ 0.227 µM); MIC ([12]; 99F74, 24 h, read-out: M.I.C.): 10 µg/mL (≈ 22.7 µM); MIC ([12]; 99F74, 48 h, 48 H): 40 µg/mL (≈ 90.6 µM); MIC ([13]; 24 h): 0.1 µg/mL (≈ 0.227 µM); MIC ([13]; 48 h): 0.1 µg/mL (≈ 0.227 µM); MIC ([14]; EXP.52145, 24 h, 24 H): 0.05 µg/mL (≈ 0.113 µM); MIC ([14]; EXP.52145, 48 h, 48 H): 0.1 µg/mL (≈ 0.227 µM); MIC ([15]; ATCC6, 24 h, 24 H, read-out: M.I.C.): 0.5 µg/mL (≈ 1.13 µM)
C=CO/N=C(\C(=O)NC1C(=O)N2C(C(=O)O)=C(COC(C)=O)CSC12)c1csc(N)n1 (stereo not drawn) [Product B, syn isomer of 3-acetoxymethyl-7-[2-(2-amino-4-thiazolyl)-2-vinyloxyimino-acetamido]-ceph-3-eme-4-carboxylic acid]	3 (≈ 6.42 µM)	5 (≈ 10.7 µM)	1 (≈ 2.14 µM)	1 (≈ 2.14 µM)	3 (≈ 6.42 µM)	1 (≈ 2.14 µM)	2 (≈ 4.28 µM)	0.5 (≈ 1.07 µM)	0.5 (≈ 1.07 µM)	1 (≈ 2.14 µM)	≤ 0.02	≤ 0.02	0.2 (≈ 0.428 µM)	0.2 (≈ 0.428 µM)	0.5 (≈ 1.07 µM)	2 (≈ 4.28 µM)	2 (≈ 4.28 µM)	5 (≈ 10.7 µM)	≤ 0.02	≤ 0.02	MIC ([3]; 24 h): 1 µg/mL (≈ 2.14 µM); MIC ([3]; 48 h): 2 µg/mL (≈ 4.28 µM); MIC (Enterobacter cloacae 681; Enterobacter cloacae, 681, 48 h): 5 µg/mL (≈ 10.7 µM); MIC ([5]; ATCC9, 24 h, 24 H, read-out: M.I.C.): 0.5 µg/mL (≈ 1.07 µM); MIC ([5]; ATCC9, 48 h, 48 H, read-out: M.I.C.): 0.5 µg/mL (≈ 1.07 µM); MIC ([7]; 48 h): 2 µg/mL (≈ 4.28 µM); MIC ([8]; 24 h): 1 µg/mL (≈ 2.14 µM); MIC ([8]; 48 h): 1 µg/mL (≈ 2.14 µM); MIC ([11]; 48 h, read-out: M.I.C.): 0.5 µg/mL (≈ 1.07 µM); MIC ([12]; 99F74, 24 h, 24 H): 5 µg/mL (≈ 10.7 µM); MIC ([12]; 99F74, 48 h, read-out: M.I.C.): 10 µg/mL (≈ 21.4 µM); MIC ([13]; 24 h, read-out: M.I.C.): 0.05 µg/mL (≈ 0.107 µM); MIC ([13]; 48 h, read-out: M.I.C.): 0.95 µg/mL (≈ 2.03 µM); MIC ([14]; EXP.52145, 24 h, 24 H, read-out: M.I.C.): ≤ 0.02 µg/mL; MIC ([14]; EXP.52145, 48 h, 48 H, read-out: M.I.C.): ≤ 0.02 µg/mL; MIC ([15]; ATCC6, 24 h, 24 H): 2 µg/mL (≈ 4.28 µM)
